ChEMBL document CHEMBL3352297, “Structure based virtual screening of MDPI database: discovery of structurally diverse and novel DPP-IV inhibitors” (Bioorg Med Chem Lett, 2014)
Calls of active or inactive are those of the source. The rule behind the calls is not given here.

Legend:
Rattus norvegicus = test: Suppression of blood glucose level in Wistar rat at 30 mg/kg, po measured 30 to 120 mins post dextrose challenge by oral glucose tolerance test; format: functional, organism-based; design: dose 30 mg/kg
Dipeptidyl peptidase 4 = Dipeptidyl peptidase 4 (Homo sapiens, UniProt P27487); test: Inhibition of human DPP-4 using H-Gly-Pro-para-Nitroanilide as substrate incubated for 20 mins prior to substrate addition measured after 30 mins by spectrophotometry
Dipeptidyl peptidase 4, sequence (P27487 whole entry): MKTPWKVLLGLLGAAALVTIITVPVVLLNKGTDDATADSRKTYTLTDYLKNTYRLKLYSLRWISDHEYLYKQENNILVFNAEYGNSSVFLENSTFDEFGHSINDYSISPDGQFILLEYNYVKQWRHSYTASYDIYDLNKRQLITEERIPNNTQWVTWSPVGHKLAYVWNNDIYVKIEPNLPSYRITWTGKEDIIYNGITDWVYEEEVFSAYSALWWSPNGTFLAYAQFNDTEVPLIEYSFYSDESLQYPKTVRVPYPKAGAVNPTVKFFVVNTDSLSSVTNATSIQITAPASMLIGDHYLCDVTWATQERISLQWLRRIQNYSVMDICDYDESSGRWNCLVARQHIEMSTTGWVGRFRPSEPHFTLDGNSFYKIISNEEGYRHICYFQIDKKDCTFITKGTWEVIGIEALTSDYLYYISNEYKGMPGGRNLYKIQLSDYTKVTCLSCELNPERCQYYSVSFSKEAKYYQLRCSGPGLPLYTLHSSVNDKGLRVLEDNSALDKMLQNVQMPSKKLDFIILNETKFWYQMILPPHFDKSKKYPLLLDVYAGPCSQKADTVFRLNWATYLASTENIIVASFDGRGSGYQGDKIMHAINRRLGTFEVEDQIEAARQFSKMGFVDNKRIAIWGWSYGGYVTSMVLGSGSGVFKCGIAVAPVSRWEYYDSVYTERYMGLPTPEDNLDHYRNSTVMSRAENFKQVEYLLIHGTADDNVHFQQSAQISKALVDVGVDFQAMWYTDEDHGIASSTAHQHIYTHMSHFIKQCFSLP

IC50 (Dipeptidyl peptidase 4; read-out: IC50) | IC50 (Dipeptidyl peptidase 4) | Compound | Activity (Rattus norvegicus)
– | – | 2,2-diphenylethanaminium tetrachloroaurate | Active
> 100000 nM | – | N=CC(C(=O)c1ccccc1)c1ccccc1 (stereo not drawn) | –
– | ND(Insoluble) | CN(C)c1ccc(C(N)CC(=O)c2c(O)c3ccccc3n(C)c2=O)cc1 (stereo not drawn) | –
730 nM | – | Cn1c(=O)c(C(C)(NN)Nc2ccccc2)c(O)c2ccccc21 (stereo not drawn) | Active
2950 nM | – | CCn1c(=O)c(C(C)(NN)Nc2ccc(C)cc2)c(O)c2ccccc21 (stereo not drawn) | Active

Compound | IC50 (Dipeptidyl peptidase 4; read-out: IC50) | IC50 (Dipeptidyl peptidase 4) | Activity (Rattus norvegicus)
Cc1ccc(=N)n(Cc2cccc(F)c2)c1 | 34600 nM | – | –
